The source of these data is US20040171632A1, “Combination chemotherapy” (priority 1998, published 2004).

The test system of data set [1] is colon 26 carcinoma cells. Briefly: apoptosis of colon 26 carcinoma cells in culture (phalloidin-FITC, flow cytometry). The data set is classed as cell-based, mouse. To be noted: for increase of apoptosis: FIG. 1; for incidence in apoptosis: second study, FIG. 2. As to the method: The data establish that the vehicle alone (DMSO) caused no effect on apoptosis (programmed cell death) of the colon 26 carcinoma cells. […] At the 30 nM concentration of paclitaxel, the combination caused about an 18% incidence in apoptosis.
The assay described above was repeated, and the results (see FIG. 2) confirmed that the combinations of this invention are useful to treat and control cancer. In this second study, DMSO did cause measurable cell death, somewhat similar to that observed with the 30 nM concentration of paclitaxel alone.
A general note: Flow cytometry measures light scatter and fluorescence of single cells or particles in a stream.

The test system of data set [2] is non-small cell lung carcinoma cells (A549). The following applies: Taxol alone at 10 nM; one set of experiments.
Procedure: The colon 26 carcinoma cells were originally collected from a mouse that had undergone surgery to remove the infected section of the colon, and are now readily available from Southern Research Institute (Birmingham, Ala., USA). The cells were cultured to approximately 80% confluency on Day 0 of the assay. At 72 hours after the 80% confluency was established, dimethylsulfoxide (DMSO) was added to one set of cells to act as untreated controls. Paclitaxel at concentrations of 30 nM and 100 nM was added to other sets of cells. All of the cells were incubated at 38° C. for 48 hours, at which time MEK inhibitor 2-(2-chloro-4-iodophenylamino)-N-cyclopropylmethoxy-3,4-difluorobenzamide (PD184352), at a concentration of 1.0 micromolar, was added to one set of the DMSO control cells, and to the cells containing the two concentrations of paclitaxel. All cells were again incubated for an additional 48-hour period. The cells were harvested from the growth medium, and were fixed in ethanol. The cells were then treated with FITC (fluorescein isothiocyanate)-labeled phalloidin (Sigma). Binding of phalloidin-FITC to depolymerized actin thereby serves as a measure of apoptosis. Propidium iodide was also added to the treated and control cells for the purpose of staining all cells. The extent of apoptosis of tumor cells was measured by flow cytometry analysis. […]

What is called melting point is the temperature, or range, at which the solid turns liquid. `Cc1cc(I)ccc1Nc1ccc(Cl)cc1C(=O)NCCO` [Example 31, 5-Chloro-N-(2-hydroxyethyl)-2-(4-iodo-2-methyl-phenylamino)-benzamide]: the melting point fell in the range of 120 to 121 °C. With `Cc1cc(I)ccc1Nc1cc(F)ccc1CO` [Example 49, 4-Fluoro-2-(4-iodo-2-methyl-phenylamino)-benzyl alcohol], the melting point lay within 99 to 100.5 °C. The same measure, in the same setting: for `Cc1cc(I)ccc1Nc1ccccc1-c1nnn[nH]1` [Example 208, (4-iodo-2-methyl-phenyl)-[2-(1H-tetrazol-5-yl)-phenyl]amine] the value was 231 °C. As to `O=C(NOCC1CC1)c1ccc(F)c(F)c1Nc1ccc(I)cc1Cl` [PD184352, 2-(2-chloro-4-iodophenylamino)-N-cyclopropylmethoxy-3,4-difluorobenzamide], the increase of apoptosis result in data set [1] (MEK inhibitor alone, at 30 nM as printed) is reported as “about 5%”. Further, in data set [1] (MEK inhibitor administered alone), the incidence in apoptosis was around 18%. On to `CC(=O)O[C@H]1C(=O)[C@@]2(C)[C@H]([C@H](OC(=O)c3ccccc3)[C@]3(O)C[C@H](OC(=O)[C@H](O)[C@@H](NC(=O)c4ccccc4)c4ccccc4)C(C)=C1C3(C)C)[C@]1(OC(C)=O)CO[C@@H]1C[C@@H]2O` [paclitaxel], for which the incidence of apoptosis in data set [2] was found to be 41%. In addition, the results for the increase of apoptosis result in data set [1] (paclitaxel alone at 30 nM) and in data set [1] (paclitaxel alone at 100 nM) were “about 9%” and “about 18%”, respectively. Also, in data set [1] (paclitaxel at 100 nM alone), the incidence in apoptosis was around 11%.
